Reference: patent US20260284190A1, “METHODS FOR THE TREATMENT OF T-CELL ACUTE LYMPHOBLASTIC LEUKEMIA” (Institut Curie, priority 2023, published 2026)

Columns and labels:
[1] = test system: caspase 8 activity in T-ALL cells; experiment: Caspase 8 activity by flow cytometry in primary leukemic cells from treated leukemic mice; parameters: species or system NSG mice; settings: in vivo, 6 h; FIG. 2
Procedure: FIG. 2: Caspase 8 activity as measured by flow cytometry in primary leukemic cells collected from leukemic mice treated by control IgG (n=3) or anti-CD3 (OKT3) (n=3) mAbs for 6 h.
Cell suspensions prepared from mouse lymphoid organs, bone marrow, or blood were stained with fluorochrome-labeled antibodies and analyzed on a FACSCanto cytometer (BD Biosciences), as recommended by manufacturer. Data are analyzed using Diva, CellQuest (BD Biosciences) and FlowJo (TreeStar) softwares. Antibodies used are: CD7-FITC (4H9), CD45-APC (2D4) (eBioscience), PD1-Alexa Fluor 647 (EH12.2H7) (Biolegend).

T-ALL PDX cells = experiment: Transcriptome profiling (Affymetrix microarray) of T-ALL PDX in response to anti-CD3; type: in vivo, NSG mice; settings: 40 μg, 6 hours; for expression of genes of interest (TNFR super family pathway, PD1): FIG. 1B; for TCR-induced signature: number of deregulated genes: 2X, p-value<0.05, common to both monoclonal antibodies, in vivo
Description: Leukemic cells were then collected, flow-cytometry sorted, RNA isolated and analyzed using human Affymetrix arrays. […] FC: Fold Change. C RNA expression analysis (digitalized numeration of transcripts-mRNA) of genes of interest in M106 xenograft overtime after OKT3 treatment using Nanostring arrays: TNFα, LTα, TNFRSF9 (4-1BB), TNFRSF1B (TNFR2), TNFRSF4 (OX40) and PDCD1 (PD1). D Flow cytometry analysis of TNFRSF1B (TNFR2), TNFRSF1A (TNFR1), TNFRSF9 (4-1BB), TNFRSF4 (OX40) and PDCD1 (PD 1) cell surface expression in leukemic cells isolated from mice treated with 40μg of control IgG or OKT3 for 24h.
Total RNA was isolated from flow-cytometry-sorted leukemic cells (FSChi, hCD7+, hCD 45+) (6 hours following treatment with either 40 μg anti-CD 3 mAb or control IgG 2a antibody), using the Rneasy kit (QIAGEN). cRNA synthesis and hybridization of GeneChip Human Gene 2.0ST Array (Affymetrix) were according to the manufacturer's instructions, as described (http: //www-microarrays. u-strasbg. fr). A paired Student's t-test was performed to compare gene intensities in the different biological replicates. […] Hierarchical clustering analysis and pathway analyses on regulated genes (KEGG) were performed by Genosplice company.

[2] = in vivo; cited from earlier work
[3] = test system: TCRαβ+ and TCRγδ+ T-ALL patients-derived xenografts; settings: cited from earlier work

Substance: OKT3: anti-CD3ε monoclonal antibody (IgG2a)
- caspase 8 activity in T-ALL cells [1]: fast induction
- expression of genes of interest (TNFR super family pathway, PD1) (T-ALL PDX cells): significantly upregulated
- TCR-induced signature: number of deregulated genes (T-ALL PDX cells): ~600

Substance: teplizumab: a humanized, mutated version of OKT3 which is FDA-approved in prevention of type I diabetes
- expression of genes of interest (TNFR super family pathway, PD1) (T-ALL PDX cells): significantly upregulated
- TCR-induced signature: number of deregulated genes (T-ALL PDX cells): ~600
- adverse effects in humans [2]: only minor adverse effects

Substance: foralumab: a fully human anti-CD3 mAb
- adverse effects in humans [2]: only minor adverse effects
- final outcome of monotherapy ([3]; mice carrying TCR+ T-ALL PDX): leukemia relapse and resistance to TCR-directed therapy
- anti-leukemic effects over time ([3]; monotherapy of T-ALL PDX): profound anti-leukemic effects
- host survival ([3]; monotherapy of T-ALL PDX): improved host survival
- leukemic cells apoptosis ([3]; monotherapy of T-ALL PDX): within hours
- remission ([3]; monotherapy of T-ALL PDX): durable remission
